Literature values as cited in patent US20220395547A1, “LIPOSOMAL FORMULATIONS FOR DELIVERY OF CANNABINOIDS AND METHODS OF MAKING THEREOF” (Vella Bioscience, Inc., priority 2019, published 2022).

Test system: microorganisms
Conditions: known from the art

## CC(O)CO (stereo not shown) [propylene glycol]
  Concentration at which antimicrobial activity is present: ≥ 20%
